Test results reported in patent US20110081315A1, “NOVEL MACROCYCLIC INHIBITORS OF HEPATITIS C VIRUS REPLICATION” (INTERMUNE, INC., priority 2009, published 2011).
Where two headings read alike, the source gives them in different places.

Assays:
[1] = target: NS3/NS4 complexes (Hepatitis C virus genotype 1a, UniProt P27958); test: NS3/NS4 inhibition assay (IC50); type: biochemical; conditions: NS3/NS4 activity; 23° C., 25 μM NS4A peptide
Procedure, shortened: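 Enzyme IC50: NS3/NS4 complex, 23° C.; buffer Tris-HCl 50 mM pH 7.5 / glycerol 15% / DTT 10 mM / LDAO 0.6 mM / NS4A peptide 25 μM. Cellular: HCV replicon EC50.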

[2] = test system: hepatitis C replicon; test: hepatitis C replicon EC50 assay; type: cell-based; conditions: Hepatitis C virus
Procedure, shortened: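 Replicon EC50 determined per a referenced patent protocol; assays run at ambient temperature (23° C.) in 50 mM Tris-HCl pH 7.5 with 15% glycerol, 0.6 mM LDAO, 25 μM NS4A peptide and 10 mM DTT.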

[3] = hepatitis C replicon, read-out: EC50

Chain of NS3/NS4 complexes (P27958 1027-1657, one chain of several): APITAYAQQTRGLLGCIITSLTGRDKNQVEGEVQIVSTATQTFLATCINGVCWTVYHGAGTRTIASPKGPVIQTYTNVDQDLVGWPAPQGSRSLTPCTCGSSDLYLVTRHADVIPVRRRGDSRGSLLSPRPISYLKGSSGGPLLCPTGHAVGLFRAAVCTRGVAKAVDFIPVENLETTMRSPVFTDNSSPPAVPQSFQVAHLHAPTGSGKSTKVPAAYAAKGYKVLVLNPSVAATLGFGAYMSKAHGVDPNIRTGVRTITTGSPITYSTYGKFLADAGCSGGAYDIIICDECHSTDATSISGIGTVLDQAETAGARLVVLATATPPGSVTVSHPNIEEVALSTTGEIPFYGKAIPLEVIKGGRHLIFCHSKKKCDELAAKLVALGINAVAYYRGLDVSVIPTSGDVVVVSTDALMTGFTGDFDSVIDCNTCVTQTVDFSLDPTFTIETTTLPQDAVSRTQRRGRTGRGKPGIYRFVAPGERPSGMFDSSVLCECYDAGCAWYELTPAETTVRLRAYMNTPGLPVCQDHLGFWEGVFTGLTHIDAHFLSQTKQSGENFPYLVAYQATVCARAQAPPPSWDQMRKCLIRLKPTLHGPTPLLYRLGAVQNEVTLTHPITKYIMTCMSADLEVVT

| Compound | IC50 [1] | EC50 [2, 3] | EC50 [2] |
| --- | --- | --- | --- |
| CC(C)n1c(O[C@@H]2C[C@H]3C(=O)N[C@]4(C(=O)NS(=O)(=O)N(C)C)C[C@H]4/C=C\CCCCC[C@H](NC(=O)OC(C)(C)C)C(=O)N3C2)nc2c(-c3nc(-c4ccccn4)cs3)cccc21 [Compound 1735] | < 10 nM | < 10 nM |  |
| CC(C)n1c(O[C@@H]2C[C@H]3C(=O)N[C@]4(C(=O)NS(=O)(=O)C5CC5)C[C@H]4/C=C\CCCCC[C@H](NC(=O)OC(C)(C)C)C(=O)N3C2)nc2c(-c3nccs3)cccc21 [Compound 211] | < 10 nM | < 10 nM |  |
| CC(C)n1c(O[C@@H]2C[C@H]3C(=O)N[C@]4(C(=O)NS(=O)(=O)C5(C)CC5)C[C@H]4/C=C\CCCCC[C@H](Nc4ccccc4)C(=O)N3C2)nc2c(C(=O)N(C)C)cccc21 [Compound 270] | < 10 nM | > 100 nM |  |
| CC(C)n1c(O[C@@H]2C[C@H]3C(=O)N[C@]4(C(=O)NS(=O)(=O)N(C)C)C[C@H]4/C=C\CCCCC[C@H](NC(=O)OC(C)(C)C)C(=O)N3C2)nc2c(C(N)=O)cccc21 [Compound 277] | < 10 nM | < 10 nM |  |
| CC(C)n1c(O[C@@H]2C[C@H]3C(=O)N[C@]4(C(=O)NS(=O)(=O)C5(C)CC5)C[C@H]4/C=C\CCCCC[C@H](NC(=O)OC(C)(C)C)C(=O)N3C2)nc2c(-c3nc4c(s3)CCCC4(C)C)cccc21 [Compound 1774] | < 10 nM | 10 to 100 nM |  |
| CC(C)n1c(O[C@@H]2C[C@H]3C(=O)N[C@]4(C(=O)NS(=O)(=O)C5CC5)C[C@H]4/C=C\CCCCC[C@H](NC(=O)OC(C)(C)C)C(=O)N3C2)nc2cncnc21 [Compound 504] | < 10 nM | 10 to 100 nM |  |
| CC(C)c1csc(-c2cccc3c2nc(O[C@@H]2C[C@H]4C(=O)N[C@]5(C(=O)NS(=O)(=O)N(C)C)C[C@H]5/C=C\CCCCC[C@H](NC(=O)OC(C)(C)C)C(=O)N4C2)n3C(C)C)n1 [Compound 1433] | < 10 nM | < 10 nM |  |
| Cc1oc(-c2c(F)ccc3c2nc(O[C@@H]2C[C@H]4C(=O)N[C@]5(C(=O)NS(=O)(=O)N(C)C)C[C@H]5/C=C\CCCCC[C@H](NC(=O)OC(C)(C)C)C(=O)N4C2)n3C(C)C)nc1C(C)C [Compound 1220] | < 10 nM | < 10 nM |  |
| COc1ccc2c(O[C@@H]3C[C@H]4C(=O)N[C@]5(C(=O)NS(=O)(=O)C6(C)CC6)C[C@H]5/C=C\CCCCC[C@H](Nc5cccc(C(=O)N6CCN(CCN(C)C)CC6)c5)C(=O)N4C3)cc(-c3nc(C(C)C)cs3)nc2c1C [Compound 111] | < 10 nM | < 10 nM |  |
| CC(C)n1c(O[C@@H]2C[C@H]3C(=O)N[C@]4(C(=O)NS(=O)(=O)N(C)C)C[C@H]4/C=C\CCCCC[C@H](NC(=O)OC(C)(C)C)C(=O)N3C2)nc2c(NC(=O)Nc3ccccc3)cccc21 [Compound 1420] | < 10 nM |  | < 10 nM |
| Cc1sc(-c2cccc3c2nc(O[C@@H]2C[C@H]4C(=O)N[C@]5(C(=O)NS(=O)(=O)C6(C)CC6)C[C@H]5/C=C\CCCCC[C@H](NC(=O)OC(C)(C)C)C(=O)N4C2)n3C(C)C)nc1C(C)C [Compound 237] | < 10 nM | < 10 nM |  |
| Cc1sc(-c2cccc3c2nc(O[C@@H]2C[C@H]4C(=O)N[C@]5(C(=O)NS(=O)(=O)C6(C)CC6)C[C@H]5/C=C\CCCCC[C@H](NC(=O)OC(C)(C)C)C(=O)N4C2)n3C(C)C)nc1C(C)(C)C [Compound 1208] | < 10 nM | 10 to 100 nM |  |
| CC(C)n1c(O[C@@H]2C[C@H]3C(=O)N[C@]4(C(=O)NS(=O)(=O)C5(C)CC5)C[C@H]4/C=C\CCCCC[C@H](Nc4ccccc4)C(=O)N3C2)nc2c(-c3ccccc3)cccc21 [Compound 203] | < 10 nM | 10 to 100 nM |  |
| CCC(C)n1c(O[C@@H]2C[C@H]3C(=O)N[C@]4(C(=O)NS(=O)(=O)N(C)C)C[C@H]4/C=C\CCCCC[C@H](NC(=O)OC(C)(C)C)C(=O)N3C2)nc2ccccc21 (stereo partly drawn) [Compound 1224] | < 10 nM | < 10 nM |  |
| CCOC(=O)c1nc2ccccc2nc1O[C@@H]1C[C@H]2C(=O)N[C@]3(C(=O)NS(=O)(=O)N(C)C)C[C@H]3/C=C\CCCCC[C@H](NC(=O)OC(C)(C)C)C(=O)N2C1 [Compound 309] | < 10 nM | 10 to 100 nM |  |
| CC(C)c1ccc2c(c1)nc(O[C@@H]1C[C@H]3C(=O)N[C@]4(C(=O)NS(=O)(=O)N(C)C)C[C@H]4/C=C\CCCCC[C@H](NC(=O)OC(C)(C)C)C(=O)N3C1)n2C(C)C [Compound 289] | < 10 nM | 10 to 100 nM |  |
| CC(C)n1c(O[C@@H]2C[C@H]3C(=O)N[C@]4(C(=O)NS(=O)(=O)C5CC5)C[C@H]4/C=C\CCCCC[C@H](NC(=O)OC(C)(C)C)C(=O)N3C2)nc2c(-c3nc4ccccc4s3)cccc21 [Compound 214] | < 10 nM | < 10 nM |  |

| Compound | IC50 [1] | EC50 [2, 3] | EC50 [2] |
| --- | --- | --- | --- |
| CC(C)n1c(O[C@@H]2C[C@H]3C(=O)N[C@]4(C(=O)NS(=O)(=O)C5(C)CC5)C[C@H]4/C=C\CCCCC[C@H](Nc4ccccc4)C(=O)N3C2)nc2c(-c3ccccc3F)cccc21 [Compound 242] | < 10 nM | 10 to 100 nM |  |
| COc1ccc2c(O[C@@H]3C[C@H]4C(=O)N[C@]5(C(=O)NS(=O)(=O)C6(C)CC6)C[C@H]5/C=C\CCCCC[C@H](Nc5cccc(C(=O)N6CCOCC6)c5)C(=O)N4C3)cc(-c3nc(C(C)C)cs3)nc2c1C [Compound 105] | < 10 nM | < 10 nM |  |
| CC(C)n1c(O[C@@H]2C[C@H]3C(=O)N[C@]4(C(=O)NS(=O)(=O)N(C)C)C[C@H]4/C=C\CCCCC[C@H](NC(=O)OC(C)(C)C)C(=O)N3C2)nc2c(-c3nc(-c4ccc(-c5ccccc5)cc4)cs3)cccc21 [Compound 1753] | < 10 nM | 10 to 100 nM |  |
| CCNC(=O)Nc1cccc2c1nc(O[C@@H]1C[C@H]3C(=O)N[C@]4(C(=O)NS(=O)(=O)C5(C)CC5)C[C@H]4/C=C\CCCCC[C@H](Nc4ccccc4)C(=O)N3C1)n2C(C)C [Compound 1405] | < 10 nM | 10 to 100 nM |  |
| CC(C)n1c(O[C@@H]2C[C@H]3C(=O)N[C@]4(C(=O)NS(=O)(=O)C5CC5)C[C@H]4/C=C\CCCCC[C@H](NC(=O)OC(C)(C)C)C(=O)N3C2)nc2c(-c3cc(C(F)(F)F)nn3C)cccc21 [Compound 222] | < 10 nM | < 10 nM |  |
| CCc1cccc2c1nc(O[C@@H]1C[C@H]3C(=O)N[C@]4(C(=O)NS(=O)(=O)C5(C)CC5)C[C@H]4/C=C\CCCCC[C@H](Nc4ccccc4)C(=O)N3C1)n2C(C)C [Compound 265] | < 10 nM | 10 to 100 nM |  |
| Cc1sc(-c2cccc3c2nc(O[C@@H]2C[C@H]4C(=O)N[C@]5(C(=O)NS(=O)(=O)N(C)C)C[C@H]5/C=C\CCCCC[C@H](NC(=O)OC(C)(C)C)C(=O)N4C2)n3C(C)C)nc1C(C)C [Compound 231] | < 10 nM | 10 to 100 nM |  |
| CC(C)n1c(O[C@@H]2C[C@H]3C(=O)N[C@]4(C(=O)NS(=O)(=O)C5(C)CC5)C[C@H]4/C=C\CCCCC[C@H](NC(=O)OC(C)(C)C)C(=O)N3C2)nc2c(-c3csc(C4CC4)n3)cccc21 [Compound 1702] | < 10 nM | < 10 nM |  |
| CC(C)(C)OC(=O)N[C@H]1CCCCC/C=C\[C@@H]2C[C@@]2(C(=O)NS(=O)(=O)C2(C)CC2)NC(=O)[C@@H]2C[C@@H](Oc3ccc4ncn(-c5ccccc5)c4c3)CN2C1=O [Compound 299] | < 10 nM | 10 to 100 nM |  |
| CC(C)n1c(O[C@@H]2C[C@H]3C(=O)N[C@]4(C(=O)NS(=O)(=O)N(C)C)C[C@H]4/C=C\CCCCC[C@H](NC(=O)OC(C)(C)C)C(=O)N3C2)nc2c(-c3nc(Cc4ccccc4)cs3)cccc21 [Compound 1768] | < 10 nM | < 10 nM |  |
| CN(C)S(=O)(=O)NC(=O)[C@@]12C[C@H]1/C=C\CCCCC[C@H](NC(=O)OC(C)(C)C)C(=O)N1C[C@H](Oc3nc4ccccc4nc3C(F)(F)F)C[C@H]1C(=O)N2 [Compound 303] | < 10 nM | < 10 nM |  |
| Cc1nc2cc(O[C@@H]3C[C@H]4C(=O)N[C@]5(C(=O)NS(=O)(=O)N(C)C)C[C@H]5/C=C\CCCCC[C@H](NC(=O)OC(C)(C)C)C(=O)N4C3)ccc2s1 [Compound 1253] | < 10 nM | > 100 nM |  |
| COc1ccc2c(O[C@@H]3C[C@H]4C(=O)N[C@]5(C(=O)NS(=O)(=O)C6(C)CC6)C[C@H]5/C=C\CCCCC[C@H](Nc5ccc(N)cc5)C(=O)N4C3)cc(-c3nc(C(C)C)cs3)nc2c1C [Compound 101] | < 10 nM |  | 10 to 100 nM |
| CN(C)S(=O)(=O)NC(=O)[C@@]12C[C@H]1/C=C\CCCCC[C@H](NC(=O)OC(C)(C)C)C(=O)N1C[C@H](Oc3nc4ccccc4nc3-c3ccc(F)cc3)C[C@H]1C(=O)N2 [Compound 308] | < 10 nM | 10 to 100 nM |  |
| Cc1ccccc1-c1csc(-c2cccc3c2nc(O[C@@H]2C[C@H]4C(=O)N[C@]5(C(=O)NS(=O)(=O)C6(C)CC6)C[C@H]5/C=C\CCCCC[C@H](NC(=O)OC(C)(C)C)C(=O)N4C2)n3C(C)C)n1 [Compound 1712] | < 10 nM | < 10 nM |  |
| CC(C)n1c(O[C@@H]2C[C@H]3C(=O)N[C@]4(C(=O)NS(=O)(=O)C5(C)CC5)C[C@H]4/C=C\CCCCC[C@H](NC(=O)OC(C)(C)C)C(=O)N3C2)nc2c(-c3csc(N4CCOCC4)n3)cccc21 [Compound 1704] | < 10 nM | < 10 nM |  |
